# Measurements taken from patent publication US10781183B2, “Small molecule inducers of reactive oxygen species and inhibitors of mitochondrial activity” (The Regents of the University of Michigan, priority 2016, dated 2020).
# Read-outs that look alike come from different tables or passages of the source.
# Experiments:
# MiaPaCa-2 xenograft = MiaPaCa-2 xenograft studies; format: in vivo, NOD/SCID mice
# Description: (§1) MiaPaCa-2 cells (2.0×10^6) in a 100 μL suspension of RPMI1640 was injected subcutaneously into dorsal flank of 6-week NOD/SCID mice. Tumor size was monitored twice a week through caliper measurement using the following equation: V=d^2×D/2, where d represents width and D represents length of the tumor. In study 1, mice were randomly grouped (n=5 per group) when average tumor size reached 65 mm^3. Daily treatment was given at five days on two days off cycles. QD325 was given at 5 mg/kg in 100 μL vehicle (5% DMSO, 60% Propylene glycol, 35% Saline) by intraperitoneal injection. […] Unpaired t test was performed for data analysis and p<0.05 was considered significant. […] Procedures for study 2 with gemcitabine treatment are detailed in supplemental information.
# (§2) On necropsy, tumors, hearts, kidneys, livers, lungs, spleens and pancreases were collected, fixed in 10% neutral buffered formalin, embedded in paraffin, and sectioned. Sections ([…]) were stained with hematoxylin and eosin to facilitate histologic examination. For Ki67 expression level, immunohistochemistry staining was performed on sections with Ki67 antibody. Embedding, sectioning and staining of samples were performed by ULAM pathology core for animal research at the University of Michigan. Representative images were taken on Olympus IX83 microscope with 20× magnification.
# BxPC-3 cells = assay: MTT cytotoxicity assay, BxPC-3; format: cell-based; conditions: Homo sapiens, three independent experiments
# MiaPaCa-2 cells [1] = assay: MTT cytotoxicity assay, MiaPaCa-2; format: cell-based; conditions: for IC50: Homo sapiens, Mean ± SD, three independent experiments
# HPDE = assay: MTT cytotoxicity assay, immortalized pancreatic cell line HPDE; format: cell-based, human; conditions: HPDE vs MiaPaCa-2
# Description: MiaPaCa-2, Panc-1 and BxPC-3 pancreatic cancer cell lines were obtained from the ATCC. Normal pancreatic cells HPDE and HPNE were kindly provided (Translational Oncology Program, University of […], Ann Arbor, Mich.). Gemcitabine resistant cell line MiaPaCa-2-GR (gemcitabine resistant) was kindly provided (Department of Pathology, Wayne State University, Detroit, Mich.). All cell lines were cultured as monolayer and maintained in RPMI1640 supplemented with 10% fetal bovine serum (FBS) in a humidified atmosphere with 5% CO2 at 37° C. MiaPaCa-2-GR culture was supplemented with 200 nM gemcitabine.
# Cytotoxicity of compounds was evaluated with 3-(4,5-dimethylthiazol-2-yl)-2,5-diphenyltetrazolium bromide (MTT) assay. Cells were placed in 96-well plate at 3000-8000 cells/well. After overnight attachment, compounds were added to the wells at sequential dilutions (30 nM-10 μM for most cell lines). After 72 h treatment, MTT was added into the media to a final concentration of 300 μg/mL. Cells were incubated for 3 h at 37° C., and the insoluble formazan converted by viable cells were dissolved in 150 μL of DMSO. Absorbance at 570 nm was read by microplate reader (Molecular devices, Sunnyvale, Calif.), and inhibition of cell proliferation was calculated using the following formula: Inhibition of cell proliferation (%)=(1−ODtreatment/ODcontrol)×100%
# [2] = Systemic toxicity in MiaPaCa-2 engrafted mice
# Description: as §1, §2
# MiaPaCa-2 cells [3] = assay: ROS detection assay (H2DCFDA probe); format: cell-based
# Description: To quantify ROS induction by redox modulators, a high throughput ROS assay in 384-well plates using H2DCFDA as the ROS detection probe was developed (FIG. 1A).
# Cells were detached by 0.05% trypsin-EDTA, neutralized, centrifuged (1200 rpm, 5 min) and resuspended in cell culture media. Suspension were then treated with 20 μM cell permeable H2DCFDA for 30 min at 37° C. Cells were then centrifuged (1200 rpm, 5 min) and washed with cell culture media to remove excess probe. After washing, cells were placed in black-wall 384-well plate at 20,000 cells/well, incubated for 30 min and treated by compounds at designated conditions. Fluorescent signal were then read at 493 nm/523 nm on BioTek H1 plate reader for ROS detection.
# Panc-1 cells = assay: MTT cytotoxicity assay, Panc-1; format: cell-based; conditions: three independent experiments
# MiaPaCa-2 cells [4] = assay: Bru-seq analysis for nascent RNA synthesis; format: cell-based
# Text: A bromouridine labeled RNA sequencing (Bru-seq) technique was used to better characterize molecular mechanisms of these novel agents. Bru-seq is able to capture real-time synthesis of the nascent RNA, so as to provide information on global gene transcription without interference by RNA stability or biased gene selection (Paulsen et al., 2014, Paulsen et al., 2013). […] Profiling of all genes with >1.5-fold change in expression upon treatment of QD232 or QD325 identified NRF2-mediated oxidative stress response and unfolded protein response (UPR) as key pathways implicated in drug action (FIG. 8A).
# Bru-seq analysis was performed as previously reported (Paulsen et al., 2014). Briefly, 4×10^6 MiaPaCa-2 cells were placed in 10 cm dishes on Day 1. On Day 2, cells were treated with DMSO, QD232 or QD325 for 4 h. Bromouridine was added into the media to label newly synthesized nascent RNA in the last 30 min of treatment to a final concentration of 2 mM. Cells were then collected in TRIZOL and total RNA was isolated. Bromouridine containing RNA population was further isolated and sent for sequencing. Sequencing reads were mapped to the HG19 reference genome. Pre-ranked gene lists were generated for each treatment through ranking genes by fold changes in gene synthesis levels compared with control, and analyzed with GSEA (Broad Institute, MA) (Subramanian et al., 2005, Mootha et al., 2003)
smiles,measurement,setting,value
"O=C1C(Nc2ccc(-c3ccccc3)cc2)=CC(=O)c2ncncc21 [QD325, 6-([1,1′-biphenyl]-4-ylamino)quinazoline-5,8-dione]",average tumor size at the end of the 48-day treatment period,"MiaPaCa-2 xenograft; QD325 5 mg/kg five times a week, gemcitabine 15 mg/kg once a week, control 1503±189 mm^3",248±72 mm^3
same,growth of tumors,"MiaPaCa-2 xenograft; QD325 5 mg/kg i.p. five times a week, treatment period of 44 days",significantly delayed growth of tumors
same,average tumor size on day 44,"MiaPaCa-2 xenograft; QD325 5 mg/kg i.p. five times a week, n=5, control 1291±168 mm^3",308±72 mm^3
same,"NQO1, HO-1, CHOP and GRP78 protein levels in tumor lysates",MiaPaCa-2 xenograft; QD325 treated tumors vs vehicle controls (FIG. 12E),significantly upregulated
same,growth of tumors at higher doses,"MiaPaCa-2 xenograft; after day 44, dose increased from 5 to 20 mg/kg until day 67, two mice per group",able to delay growth of the tumors
same,Ki67 levels in tumor tissues,"MiaPaCa-2 xenograft; immunohistochemistry of xenograft sections, QD325 5 mg/kg (FIG. 12D)",decreased Ki67 levels
same,IC50,"BxPC-3 cells; BXPC-3, 72 h, Table 1, 72 h, Mean ± SD",< 1000 nM
same,IC50,"BxPC-3 cells; BXPC-3, Table 2, Mean ± SD, read-out: IC 50 BxPC-3",500 ± 100 nM
same,IC50,"MiaPaCa-2 cells [1]; MIA PaCa-2, 72 h, Table 1, MTT assay, 72 h",< 1000 nM
same,IC50,"MiaPaCa-2 cells [1]; MIA PaCa-2, Table 2, MTT assay, read-out: IC 50 MiaPaCa-2",900 ± 200 nM
same,improvement in cytotoxicity compared with QD232,"MiaPaCa-2 cells [1]; MTT assay in PDAC cell lines MiaPaCa-2, Panc-1 and BxPC-3",more than two fold improvement in cytotoxicity
same,cytotoxicity in presence of NAC,"MiaPaCa-2 cells [1]; MTT assay, 72 h, NAC 5 mM (FIG. 3C)",decreased cytotoxicity
same,selectivity for MiaPaCa-2 over HPDE,HPDE,3 fold
same,body weight of engrafted mice,[2]; QD325 5 mg/kg (FIG. 12B),not affected
same,body weight of engrafted mice,[2]; QD325 5-20 mg/kg (FIG. 13B),not affected
same,systemic toxicity at higher doses,[2]; doses as high as 20 mg/kg,no systemic toxicity was observed
same,histopathology of H&E stained organ sections,"[2]; liver, kidney, heart, lung, spleen and pancreas, QD325 5 mg/kg (FIG. 12C)",did not reveal major histopathological changes
same,ROS induction compared with lead compound QD232,"MiaPaCa-2 cells [3]; MiaPaCa-2, 24 h treatment, 10 μM (FIG. 1C)",significantly higher ROS induction than the lead compound QD232
same,accumulation of ROS,"MiaPaCa-2 cells [3]; MiaPaCa-2, 10, 3.3 or 1.1 μM (FIG. 3A)",time- and dose-dependent accumulation of ROS
same,ROS accumulation at 10 and 3.3 μM,"MiaPaCa-2 cells [3]; MiaPaCa-2, 10 and 3.3 μM",rapid and high ROS accumulation
same,ROS induction after NAC pretreatment,"MiaPaCa-2 cells [3]; MiaPaCa-2, NAC 5 mM for 30 min pretreatment (FIG. 3B)",inhibited
same,IC50,"Panc-1 cells; Homo sapiens, PANC-1, Table 2, Mean ± SD, read-out: IC 50 Panc-1",400 ± 100 nM
same,IC50,"Panc-1 cells; Table 1, 72 h, Mean ± SD",< 1000 nM
same,apoptosis signaling (IPA analysis),"MiaPaCa-2 cells [4]; 4 h, QD232 3 times IC50, QD325 5 times IC50 (FIG. 4)",significant activation of apoptosis signaling
same,nascent RNA synthesis of mitochondrial genome,"MiaPaCa-2 cells [4]; 4 h, QD232 at 6.9 μM, QD325 at 5.0 μM (FIG. 10A)",inhibited
same,transcription of DDIT3 and HSPA5,"MiaPaCa-2 cells [4]; 4 h treatment, dose dependently (FIG. 8C)",significantly increased
same,synthesis of NQO1 and HMOX1 RNAs,"MiaPaCa-2 cells [4]; 4 h treatment, QD232 at 1, 2 or 3 times IC50, QD325 at 1, 2 or 5 times IC50 (FIG. 8B)",dose-dependently upregulated
